Numbers after ± are expanded uncertainties.
Conditions: Liquid

CCn1cc[n+](C)c1.C[C@H](O)C(=O)[O-] [3-ethyl-1-methylimidazolium (S)-2-hydroxypropanoate]
Conditions | mass density [kg/m3]
293.15 K, 101.33 kPa | 1149.7 ± 2.8
298.15 K, 101.33 kPa | 1146.1 ± 2.8
303.15 K, 101.33 kPa | 1142.5 ± 2.8
308.15 K, 101.33 kPa | 1139 ± 2.8
312.6 K, 100 kPa | 1136 ± 3
312.6 K, 10000 kPa | 1140 ± 3
312.6 K, 20000 kPa | 1144 ± 3
312.6 K, 30000 kPa | 1148 ± 3
312.6 K, 40000 kPa | 1151 ± 3
312.6 K, 50000 kPa | 1155 ± 3
312.6 K, 60000 kPa | 1158 ± 3
312.6 K, 70000 kPa | 1162 ± 3
312.6 K, 80000 kPa | 1165 ± 3
312.6 K, 90000 kPa | 1168 ± 3
312.6 K, 100000 kPa | 1172 ± 3
312.6 K, 110000 kPa | 1175 ± 4
312.6 K, 120000 kPa | 1178 ± 4
312.6 K, 130000 kPa | 1181 ± 4
312.6 K, 140000 kPa | 1183 ± 4
312.6 K, 150000 kPa | 1186 ± 4
312.6 K, 160000 kPa | 1189 ± 4
312.6 K, 170000 kPa | 1192 ± 4
312.6 K, 180000 kPa | 1195 ± 4
312.6 K, 190000 kPa | 1197 ± 5
312.6 K, 200000 kPa | 1200 ± 5
313.15 K, 101.33 kPa | 1135.6 ± 2.8
318.15 K, 101.33 kPa | 1132.2 ± 2.8
323.15 K, 101.33 kPa | 1128.8 ± 2.7
328.15 K, 101.33 kPa | 1125.4 ± 2.7
332.1 K, 10000 kPa | 1126 ± 3
332.1 K, 20000 kPa | 1131 ± 3
332.1 K, 30000 kPa | 1135 ± 3
332.1 K, 40000 kPa | 1139 ± 3
332.1 K, 50000 kPa | 1142 ± 3
332.1 K, 60000 kPa | 1146 ± 3
332.1 K, 70000 kPa | 1149 ± 3
332.1 K, 80000 kPa | 1153 ± 3
332.1 K, 90000 kPa | 1156 ± 3
332.1 K, 100000 kPa | 1159 ± 3
332.1 K, 110000 kPa | 1163 ± 3
332.1 K, 120000 kPa | 1166 ± 4
332.1 K, 130000 kPa | 1169 ± 4
332.1 K, 140000 kPa | 1172 ± 4
332.1 K, 150000 kPa | 1175 ± 4
332.1 K, 160000 kPa | 1178 ± 4
332.1 K, 170000 kPa | 1180 ± 4
332.1 K, 180000 kPa | 1183 ± 4
332.1 K, 190000 kPa | 1186 ± 4
332.1 K, 200000 kPa | 1189 ± 5
333.15 K, 101.33 kPa | 1122.1 ± 2.7
338.15 K, 101.33 kPa | 1118.7 ± 2.7
343.15 K, 101.33 kPa | 1115.4 ± 2.7
348.15 K, 101.33 kPa | 1112.1 ± 2.7
352.1 K, 10000 kPa | 1113 ± 3
352.1 K, 20000 kPa | 1118 ± 3
352.1 K, 30000 kPa | 1122 ± 3
352.1 K, 40000 kPa | 1126 ± 3
352.1 K, 50000 kPa | 1130 ± 3
352.1 K, 60000 kPa | 1134 ± 3
352.1 K, 70000 kPa | 1137 ± 3
352.1 K, 80000 kPa | 1141 ± 3
352.1 K, 90000 kPa | 1144 ± 3
352.1 K, 100000 kPa | 1148 ± 3
352.1 K, 110000 kPa | 1151 ± 3
352.1 K, 120000 kPa | 1154 ± 3
352.1 K, 130000 kPa | 1157 ± 4
352.1 K, 140000 kPa | 1160 ± 4
352.1 K, 150000 kPa | 1164 ± 4
352.1 K, 160000 kPa | 1166 ± 4
352.1 K, 170000 kPa | 1169 ± 4
352.1 K, 180000 kPa | 1172 ± 4
352.1 K, 190000 kPa | 1175 ± 4
352.1 K, 200000 kPa | 1178 ± 4
353.15 K, 101.33 kPa | 1108.8 ± 2.7
372.2 K, 10000 kPa | 1101 ± 3
372.2 K, 20000 kPa | 1105 ± 3
372.2 K, 30000 kPa | 1110 ± 3
372.2 K, 40000 kPa | 1114 ± 3
372.2 K, 50000 kPa | 1118 ± 3
372.2 K, 60000 kPa | 1122 ± 3
372.2 K, 70000 kPa | 1126 ± 3
372.2 K, 80000 kPa | 1129 ± 3
372.2 K, 90000 kPa | 1133 ± 3
372.2 K, 100000 kPa | 1137 ± 3
372.2 K, 110000 kPa | 1140 ± 3
372.2 K, 120000 kPa | 1143 ± 3
372.2 K, 130000 kPa | 1147 ± 3
372.2 K, 140000 kPa | 1150 ± 4
372.2 K, 150000 kPa | 1153 ± 4
372.2 K, 160000 kPa | 1156 ± 4
372.2 K, 170000 kPa | 1159 ± 4
372.2 K, 180000 kPa | 1162 ± 4
372.2 K, 190000 kPa | 1165 ± 4
372.2 K, 200000 kPa | 1168 ± 4
392.4 K, 10000 kPa | 1088 ± 2
392.4 K, 20000 kPa | 1093 ± 3
392.4 K, 30000 kPa | 1098 ± 3
392.4 K, 40000 kPa | 1102 ± 3
392.4 K, 50000 kPa | 1106 ± 3
392.4 K, 60000 kPa | 1110 ± 3
392.4 K, 70000 kPa | 1114 ± 3
392.4 K, 80000 kPa | 1118 ± 3
392.4 K, 90000 kPa | 1122 ± 3
392.4 K, 100000 kPa | 1126 ± 3
392.4 K, 110000 kPa | 1129 ± 3
392.4 K, 120000 kPa | 1133 ± 3
392.4 K, 130000 kPa | 1136 ± 3
392.4 K, 140000 kPa | 1139 ± 3
392.4 K, 150000 kPa | 1143 ± 4
392.4 K, 160000 kPa | 1146 ± 4
392.4 K, 170000 kPa | 1149 ± 4
392.4 K, 180000 kPa | 1152 ± 4
392.4 K, 190000 kPa | 1155 ± 4
392.4 K, 200000 kPa | 1158 ± 4
412.4 K, 10000 kPa | 1076 ± 2
412.4 K, 20000 kPa | 1081 ± 2
412.4 K, 30000 kPa | 1086 ± 3
412.4 K, 40000 kPa | 1090 ± 3
412.4 K, 50000 kPa | 1095 ± 3
412.4 K, 60000 kPa | 1099 ± 3
412.4 K, 70000 kPa | 1103 ± 3
412.4 K, 80000 kPa | 1107 ± 3
412.4 K, 90000 kPa | 1111 ± 3
412.4 K, 100000 kPa | 1115 ± 3
412.4 K, 110000 kPa | 1119 ± 3
412.4 K, 120000 kPa | 1122 ± 3
412.4 K, 130000 kPa | 1126 ± 3
412.4 K, 140000 kPa | 1129 ± 3
412.4 K, 150000 kPa | 1132 ± 3
412.4 K, 160000 kPa | 1136 ± 4
412.4 K, 170000 kPa | 1139 ± 4
412.4 K, 180000 kPa | 1142 ± 4
412.4 K, 190000 kPa | 1145 ± 4
412.4 K, 200000 kPa | 1148 ± 4
432.2 K, 10000 kPa | 1064 ± 2
432.2 K, 20000 kPa | 1069 ± 2
432.2 K, 30000 kPa | 1074 ± 2
432.2 K, 40000 kPa | 1079 ± 3
432.2 K, 50000 kPa | 1084 ± 3
432.2 K, 60000 kPa | 1088 ± 3
432.2 K, 70000 kPa | 1093 ± 3
432.2 K, 80000 kPa | 1097 ± 3
432.2 K, 90000 kPa | 1101 ± 3
432.2 K, 100000 kPa | 1105 ± 3
432.2 K, 110000 kPa | 1109 ± 3
432.2 K, 120000 kPa | 1112 ± 3
432.2 K, 130000 kPa | 1116 ± 3
432.2 K, 140000 kPa | 1119 ± 3
432.2 K, 150000 kPa | 1123 ± 3
432.2 K, 160000 kPa | 1126 ± 3
432.2 K, 170000 kPa | 1130 ± 4
432.2 K, 180000 kPa | 1133 ± 4
432.2 K, 190000 kPa | 1136 ± 4
432.2 K, 200000 kPa | 1139 ± 4
